Laboratory results taken from patent US11479546B2, “Antimalarial hexahydropyrimidine analogues” (UCB Biopharma SRL, priority 2018, dated 2022).

Key:
[1] = test system: Plasmodium falciparum 3D7; assay: P. falciparum 3D7 asexual blood stage assay, Assay Procedure Version 1 (SYBR green readout); assay type: cell-based; conditions: 3D7, Erythrocyte, Version 1 of the assay procedure (no asterisk), 72 h incubation in infected erythrocytes, 10,000 nM to 0.51 nM
Description: Asexual Blood Stage Assay
The assay used to measure the effect of test compounds on a bloodstream stage of Plasmodium falciparum 3D7 strain employs SYBR green as the readout. This is a dye that binds to double stranded deoxyribonucleic acid (DNA) with a resulting increase in fluorescence, allowing detection of P. falciparum DNA in infected erythrocytes, and thereby providing a measure of parasite growth and propagation.
P. falciparum Culture Maintenance
Erythrocytes (A+blood) were prepared for both parasite culture and assay by washing 4 times with incomplete media (15.9 g RPMI 1640 (25 mM HEPES, L-glutamine), 1 g NaHCO3, 2 g glucose, 400 μL gentacin (500 mg/mL), 2 mL hypoxanthine solution (13.6 g/L in 0.1M NaOH pH 7.3) in 1 litre of media). The cells were centrifuged at 1800 g for 5 minutes, before decanting the supernatant and re-suspending in fresh incomplete media. On the final wash, the cells were re-suspended in complete media (incomplete media with 5 g/L AlbumaxII), and centrifuged at 1800 g for 3 minutes. This cell sediment was treated as 100% haematocrit.
P. falciparum 3D7 was cultured in erythrocytes at 5% haematocrit in complete media at 37° C. (1% O2, 3% CO2, balance N2). Cultures were split on a weekly basis to achieve a 1% parasitaemia in erythrocites at 5% haematocrit in fresh media. Culture media is replaced by fresh media every other day (2 times during the week).
Assay Procedure—Version 1
On day 1, test compounds were added to assay plates using Echo dispensing technology (3 fold dilution and 10 points titration). 50 nL of each compound dilution was added to 50 μL of culture (5% haematocrit, 0.5% parasitaemia) and incubated for 72 h at 37° C. (1% O2, 3% CO2, balance N2). Final concentrations of test compounds ranged from 10,000 nM to 0.51 nM, in […].
On day 4, 10 μL SYBR green (Invitrogen S7563 supplied as 10,000×concentrate in DMSO) pre-diluted to 3× concentrate with Lysis buffer (20 mM Tris pH 7.9, 5% EDTA, 0.16% w/v, 1.6% TX100 v/v) was added to the cultures and incubated in the dark, overnight, at room temperature.
On day 5, fluorescent signal was measured using a BioTek plate reader (excitation 485 nm, emission 528 nm). All data were processed using IDBS ActivityBase. Raw data were converted into percent inhibition through linear regression by setting the high inhibition control as 100% and the no inhibition control as 0%. Quality control criteria for passing plates were as follows: Z′>0.5, S:B>3, % CV(no inhibition control)<15. The formula used to calculate Z′ is
All EC50 curve fitting was undertaken using the following 4 parametric equation:
[formula] where A=% inhibition at bottom; B=% inhibition at top; C=EC50; D=slope; x=inhibitor concentration; and y=% inhibition. […] Assay Procedure—Version 2

[2] = test system: Plasmodium falciparum 3D7; assay: P. falciparum 3D7 asexual blood stage assay, Assay Procedure Version 2 (SYBR green readout); assay type: cell-based; conditions: Version 2 of the assay procedure (asterisk *), 72 h incubation in infected erythrocytes, 50,000 nM to 15 nM
Outline: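 Parasite growth read as DNA fluorescence (SYBR green lysis overnight, ex 485/em 528 nm) after 72 h drug exposure of 3D7-infected erythrocytes at 0.5% parasitaemia, 5% haematocrit, 37 °C under 1% O2/3% CO2. Compounds tested 15–50,000 nM final, 0.5% DMSO; normalised to mefloquine (100%) and DMSO (0%), biphasic two-site EC50 fitting.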

[3] = Plasmodium falciparum, 3D7, Erythrocyte, 72 h

SMILES | IC50 [1] | further results
COc1cc(Nc2cccc([C@]3(C)CC(=O)N(C4CCOCC4)C(=N)N3)c2Cl)cc(OC)c1 [Example 161, (6S)-6-[2-Chloro-3-(3,5-dimethoxyanilino)phenyl]-2-imino-6-methyl-3-(tetrahydro-pyran-4-yl)hexahydropyrimidin-4-one] | 1680 nM | –
COc1cc(F)cc(Nc2cccc([C@]3(C)CC(=O)N(C4CCOCC4)C(=N)N3)c2Cl)c1 [Example 23, (6S)-6-[2-Chloro-3-(3-fluoro-5-methoxyanilino)phenyl]-2-imino-6-methyl-3-(tetrahydro-pyran-4-yl)hexahydropyrimidin-4-one] | 1340 nM | –
C[C@@]1(c2cccc(Nc3ccc(Cl)c(F)c3)c2Cl)CC(=O)N(C2CCOCC2)C(=N)N1 [Example 33, (6S)-6-[2-Chloro-3-(4-chloro-3-fluoroanilino)phenyl]-2-imino-6-methyl-3-(tetrahydropyran-4-yl)hexahydropyrimidin-4-one] | 1810 nM | –
C[C@@]1(c2cccc(Nc3ccccc3F)c2Cl)CC(=O)N(C2CCOCC2)C(=N)N1 [Example 36, (6S)-6-[2-Chloro-3-(2-fluoro-anilino)phenyl]-2-imino-6-methyl-3-(tetrahydropyran-4-yl)hexahydropyrimidin-4-one] | 2900 nM | –
C[C@@]1(c2cccc(Nc3cccc4ncccc34)c2Cl)CC(=O)N(C2CCOCC2)C(=N)N1 [Example 21, (6S)-6-[2-Chloro-3-(quinolin-5-ylamino)phenyl]-2-imino-6-methyl-3-(tetrahydropyran-4-yl)hexahydropyrimidin-4-one] | 1180 nM | –
C[C@@]1(c2cccc(Nc3ccc(C(F)(F)F)cc3)c2Cl)CC(=O)N(C2CCOCC2)C(=N)N1 [Example 11, (6S)-6-{2-Chloro-3-[4-(tri-fluoromethyl)anilino]phenyl}-2-imino-6-methyl-3-(tetrahydro-pyran-4-yl)hexahydropyrimidin-4-one] | 820 nM | –
C[C@@]1(c2cccc(Nc3ccc(F)cc3)c2Cl)CC(=O)N(C2CCCOC2)C(=N)N1 (single isomer, unassigned) [Example 189, (6S)-6-[2-Chloro-3-(4-fluoro-anilino)phenyl]-2-imino-6-methyl-3-[(3S*)-tetrahydro-pyran-3-yl]hexahydropyrimidin-4-one] | 820 nM | –
CC1(C)CC(N2C(=N)N[C@](C)(c3cccc(Nc4ccc(OC(F)F)nc4)c3Cl)CC2=O)CCO1 (single isomer, unassigned) [Example 143, (6S)-6-(2-Chloro-3-{[6-(difluoromethoxy)pyridin-3-yl]-amino}phenyl)-3-[(4R*)-2,2-dimethyltetrahydropyran-4-yl]-2-imino-6-methylhexahydro-pyrimidin-4-one] | – | IC50 [2]: 996 nM
CC1(C)CC(N2C(=N)N[C@](C)(c3cccc(Nc4ccc(C(C)(C)C)nc4)c3Cl)CC2=O)CCO1 (single isomer, unassigned) [Example 148, (6S)-6-{3-[(6-tert-Butylpyridin-3-yl)amino]-2-chlorophenyl}-3-[(4S*)-2,2-dimethyltetrahydro-pyran-4-yl]-2-imino-6-methyl-hexahydropyrimidin-4-one] | – | IC50 [2, 3]: 368 nM
C[C@@]1(c2cccc(Nc3cnc(C(F)(F)F)nc3)c2Cl)CC(=O)N(C2CCOCC2)C(=N)N1 [Example 52, (6S)-6-(2-Chloro-3-{[2-(trifluoromethyl)pyrimidin-5-yl]amino}phenyl)-2-imino-6-methyl-3-(tetrahydropyran-4-yl)hexahydropyrimidin-4-one] | – | IC50 [2, 3]: 680 nM
C[C@@]1(c2cccc(Nc3ccc(F)cc3OC(F)F)c2Cl)CC(=O)N(C2CCOCC2)C(=N)N1 [Example 92, (6S)-6-{2-Chloro-3-[2-(difluoro-methoxy)-4-fluoro-anilino]-phenyl}-2-imino-6-methyl-3-(tetrahydropyran-4-yl)-hexahydropyrimidin-4-one] | – | IC50 [2, 3]: 461 nM
C[C@@]1(c2cccc(Nc3ccc4ncnn4c3)c2Cl)CC(=O)N(C2CCOCC2)C(=N)N1 [Example 85, (6S)-6-[2-Chloro-3-([1,2,4]-triazolo[1,5-a]pyridin-6-yl-amino)phenyl]-2-imino-6-methyl-3-(tetrahydropyran-4-yl)hexahydropyrimidin-4-one] | – | IC50 [2, 3]: 1790 nM

Continued, in another order:

IC50 [1] | SMILES | further results
334 nM | C[C@@]1(c2cccc(Nc3cccc(Cl)c3)c2Cl)CC(=O)N(C2CCOCC2)C(=N)N1 [Example 7, (6S)-6-[2-Chloro-3-(3-chloro-anilino)phenyl]-2-imino-6-methyl-3-(tetrahydropyran-4-yl)hexahydropyrimidin-4-one] | –
252 nM | C[C@@]1(c2cccc(Nc3cccc(F)c3)c2Cl)CC(=O)N(C2CCOCC2)C(=N)N1 [Example 168, (6S)-6-[2-Chloro-3-(3-fluoro-anilino)phenyl]-2-imino-6-methyl-3-(tetrahydropyran-4-yl)hexahydropyrimidin-4-one] | –
627 nM | C[C@@]1(c2cccc(Nc3ccc(F)c(Cl)c3)c2Cl)CC(=O)N(C2CCOCC2)C(=N)N1 [Example 167, (6S)-6-[2-Chloro-3-(3-chloro-4-fluoroanilino)phenyl]-2-imino-6-methyl-3-(tetrahydropyran-4-yl)hexahydropyrimidin-4-one] | –
236 nM | COc1ccc(F)cc1Nc1cccc([C@]2(C)CC(=O)N(C3CCOCC3)C(=N)N2)c1Cl [Example 27, (6S)-6-[2-Chloro-3-(5-fluoro-2-methoxyanilino)phenyl]-2-imino-6-methyl-3-(tetrahydro-pyran-4-yl)hexahydropyrimidin-4-one] | –
492 nM | C[C@@]1(c2cccc(Nc3ccc(F)cc3)c2Cl)CC(=O)N(CC2CCOCC2)C(=N)N1 (single isomer, unassigned) [Example 170, (6S*)-6-[2-Chloro-3-(4-fluoro-anilino)phenyl]-2-imino-6-methyl-3-(tetrahydropyran-4-ylmethyl)hexahydropyrimidin-4-one] | –
200 nM | C[C@@]1(c2cccc(Nc3ccc(F)cc3)c2Cl)CC(=O)N(C2CCOCC2)C(=N)N1 [Example 12, (6S)-6-[2-Chloro-3-(4-fluoro-anilino)phenyl]-2-imino-6-methyl-3-(tetrahydropyran-4-yl)hexahydropyrimidin-4-one] | –
690 nM | Cc1cc(Nc2cccc([C@]3(C)CC(=O)N(C4CCOCC4)C(=N)N3)c2Cl)ccc1F [Example 10, (6S)-6-[2-Chloro-3-(4-fluoro-3-methylanilino)phenyl]-2-imino-6-methyl-3-(tetrahydropyran-4-yl)hexahydropyrimidin-4-one] | –
75 nM | C[C@@]1(c2cccc(Nc3ccccc3)c2Cl)CC(=O)N(C2CCCCC2)C(=N)N1 [Example 4, (6S)-6-(3-Anilino-2-chloro-phenyl)-3-cyclohexyl-2-imino-6-methylhexahydropyrimidin-4-one] | –
652 nM | C[C@@]1(c2cccc(Nc3ccc(F)cc3F)c2Cl)CC(=O)N([C@H]2C[C@@](C)(O)C2)C(=N)N1 [Example 120, (6S)-6-[2-Chloro-3-(2,4-difluoroanilino)phenyl]-3-(3-hydroxy-3-methylcyclobutyl)-2-imino-6-methylhexahydro-pyrimidin-4-one] | –
80 nM | C[C@@]1(c2cccc(Nc3ccccc3)c2Cl)CC(=O)N(CC2CCOCC2)C(=N)N1 [Example 3, (6S)-6-(3-Anilino-2-chloro-phenyl)-2-imino-6-methyl-3-(tetrahydropyran-4-ylmethyl)-hexahydropyrimidin-4-one] | –
